# Assay results taken from paper PMC6934184, “Selective DNA-PKcs inhibition extends the therapeutic index of localized radiotherapy and chemotherapy” (The Journal of Clinical Investigation, 2019).
# Biological target: T1, GSK3A (GSK3 alpha) (Homo sapiens, UniProt P49840)
# T1 construct: purchased Thermo Fisher Scientific (Life Technologies) SelectScreen
# Experiment: SelectScreen Z'LYTE
# Format: biochemical
# Outline: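 NU5455 was profiled across the SelectScreen Broad panel of kinase activity and binding assays. Z'LYTE reactions such as CSF1R ran at apparent Km ATP, while the Adapta CAMK1 assay used ATP listed as 10. Values are given as percent.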
# T1 sequence (P49840 whole entry): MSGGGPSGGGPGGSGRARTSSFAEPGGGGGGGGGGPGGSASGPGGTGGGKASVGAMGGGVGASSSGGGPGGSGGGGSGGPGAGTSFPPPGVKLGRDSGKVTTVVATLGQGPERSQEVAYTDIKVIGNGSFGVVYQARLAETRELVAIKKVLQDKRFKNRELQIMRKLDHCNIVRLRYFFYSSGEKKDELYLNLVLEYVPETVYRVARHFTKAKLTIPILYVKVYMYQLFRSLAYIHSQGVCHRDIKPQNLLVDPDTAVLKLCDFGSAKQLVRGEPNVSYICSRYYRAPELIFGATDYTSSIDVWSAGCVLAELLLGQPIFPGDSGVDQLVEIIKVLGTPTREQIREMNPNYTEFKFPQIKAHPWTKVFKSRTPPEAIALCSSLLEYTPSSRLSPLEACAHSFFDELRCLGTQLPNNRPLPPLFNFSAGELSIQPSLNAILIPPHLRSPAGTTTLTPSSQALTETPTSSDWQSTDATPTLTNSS
smiles,measurement,value
CN(C(=O)CN1CCOCC1)c1ccc2sc3c(-c4cccc5c(=O)cc(N6CC7CCC(C6)O7)oc45)cccc3c2c1 [NU5455],inhibition at 1 µM,-5.5%
